Assay: xn = mol fraction of the nth substance listed
Details: 101 kPa, Liquid; for speed of sound: Pulse-echo method; for mass density: Vibrating tube method

COCCO [2-methoxyethan-1-ol] + CCCCCCO
Details | mass density, 293.15 K [kg/m3] | mass density, 298.15 K [kg/m3] | mass density, 303.15 K [kg/m3] | mass density, 308.15 K [kg/m3] | speed of sound, 293.15 K [m/s] | speed of sound, 298.15 K [m/s] | speed of sound, 303.15 K [m/s] | speed of sound, 308.15 K [m/s]
x1 = 0.0538 | 822.792 | 819.173 | 815.536 | 811.869 | 1319.2 | 1302.3 | 1285.5 | 1268.9
x1 = 0.1042 | 828.127 | 824.464 | 820.781 | 817.068 | 1318.3 | 1301.4 | 1284.6 | 1267.9
x1 = 0.1509 | 831.771 | 828.075 | 824.358 | 820.611 | 1317.7 | 1300.8 | 1284 | 1267.4
x1 = 0.2055 | 837.788 | 834.043 | 830.27 | 826.473 | 1317.1 | 1300.2 | 1283.4 | 1266.8
x1 = 0.2405 | 841.087 | 837.314 | 833.515 | 829.687 | 1316.7 | 1299.8 | 1283.1 | 1266.4
x1 = 0.2987 | 847.639 | 843.81 | 839.961 | 836.084 | 1316.3 | 1299.5 | 1282.7 | –
x1 = 0.4088 | 860.712 | 856.785 | 852.828 | 848.853 | 1317.3 | 1300.5 | 1283.6 | 1266.9
x1 = 0.5134 | 874.132 | 870.1 | 866.048 | 861.965 | 1318.6 | 1301.7 | 1284.8 | 1268.1
x1 = 0.5991 | 886.614 | 882.495 | 878.355 | 874.185 | 1321.2 | 1304.2 | 1287.3 | 1270.6
x1 = 0.6915 | 901.59 | 897.37 | 893.13 | 888.857 | 1325.9 | 1308.8 | 1291.9 | 1275
x1 = 0.805 | 922.045 | 917.699 | 913.334 | 908.936 | 1334.2 | 1317.1 | 1300.1 | 1283.2
x1 = 0.9039 | 942.54 | 938.079 | 933.591 | 929.076 | 1345 | 1327.9 | 1310.8 | 1293.7

COCCO [2-methoxyethan-1-ol] + CCCCCCCCO
Details | mass density, 293.15 K [kg/m3] | mass density, 298.15 K [kg/m3] | mass density, 303.15 K [kg/m3] | mass density, 308.15 K [kg/m3] | speed of sound, 293.15 K [m/s] | speed of sound, 298.15 K [m/s] | speed of sound, 303.15 K [m/s] | speed of sound, 308.15 K [m/s]
x1 = 0.0535 | 828.636 | 825.138 | 821.625 | 818.089 | 1362 | 1345 | 1328.2 | 1311.5
x1 = 0.1073 | 832.242 | 828.704 | 825.153 | 821.583 | 1359.3 | 1342.3 | 1325.5 | 1308.9
x1 = 0.1407 | 834.668 | 831.104 | 827.528 | 823.931 | 1357.9 | 1340.7 | 1323.9 | 1307.2
x1 = 0.2002 | 839.135 | 835.528 | 831.905 | 828.261 | 1354.9 | 1337.9 | 1321.1 | 1304.5
x1 = 0.2659 | 844.444 | 840.786 | 837.111 | 833.414 | 1351.9 | 1334.9 | 1318.1 | 1301.4
x1 = 0.2973 | 847.294 | 843.606 | 839.904 | 836.178 | 1350.5 | 1333.6 | 1316.8 | 1300.1
x1 = 0.3559 | 852.613 | 848.877 | 845.122 | 841.346 | 1348 | 1331.1 | 1314.2 | 1297.5
x1 = 0.5233 | 870.97 | 870.97 | 863.148 | 859.203 | 1342.3 | 1325.3 | 1308.5 | 1296.6
x1 = 0.6059 | 881.954 | 867.068 | 873.942 | 869.902 | 1340.4 | 1323.4 | 1306.5 | 1289.7
x1 = 0.7126 | 898.662 | 877.961 | 890.382 | 886.205 | 1339.7 | 1322.6 | 1305.7 | 1288.8
x1 = 0.7903 | 912.569 | 908.335 | 904.076 | 899.757 | 1340.9 | 1323.9 | 1306.9 | 1290
x1 = 0.9202 | 942.675 | 938.234 | 933.772 | 929.291 | 1349.3 | 1332.2 | 1315 | 1298

COCCO [2-methoxyethan-1-ol] + CCCCCCCCCCO
Details | mass density, 293.15 K [kg/m3] | mass density, 298.15 K [kg/m3] | mass density, 303.15 K [kg/m3] | mass density, 308.15 K [kg/m3] | speed of sound, 293.15 K [m/s] | speed of sound, 298.15 K [m/s] | speed of sound, 303.15 K [m/s] | speed of sound, 308.15 K [m/s]
x1 = 0.0606 | 832.95 | 829.505 | 826.05 | 822.58 | 1393.1 | 1375.9 | 1359 | 1342.2
x1 = 0.1173 | 835.952 | 832.457 | 828.982 | 825.482 | 1389.5 | 1372.4 | 1355.4 | 1338.6
x1 = 0.1631 | 838.564 | 835.06 | 831.539 | 828.008 | 1386.6 | 1369.5 | 1352.6 | 1335.8
x1 = 0.1934 | 840.414 | 836.878 | 833.342 | 829.786 | 1384.7 | 1367.5 | 1350.6 | 1333.8
x1 = 0.251 | 844.262 | 840.695 | 837.111 | 833.512 | 1380.8 | 1363.7 | 1346.8 | 1330
x1 = 0.3025 | 847.887 | 844.28 | 840.662 | 837.024 | 1377.5 | 1360.4 | 1343.5 | 1326.7
x1 = 0.413 | 856.97 | 853.268 | 849.553 | 845.819 | 1370.2 | 1353.1 | 1336.2 | 1319.4
x1 = 0.517 | 867.321 | 863.518 | 859.697 | 855.861 | 1363.6 | 1346.6 | 1329.6 | 1312.8
x1 = 0.6285 | 880.912 | 876.98 | 873.028 | 869.056 | 1356.6 | 1339.6 | 1322.6 | 1305.7
x1 = 0.7087 | 892.252 | 888.913 | 884.854 | 880.773 | 1352.5 | 1335.3 | 1318.4 | 1301.5
x1 = 0.7965 | 909.015 | 904.836 | 900.644 | 896.427 | 1349.5 | 1332.3 | 1315.3 | 1298.3
x1 = 0.9382 | 944.534 | 940.097 | 935.63 | 931.137 | 1352.5 | 1335.3 | 1318.2 | 1301.1
